Source: US11724980B2, “Quinones having high capacity retention for use as electrolytes in aqueous redox flow batteries” (President and Fellows of Harvard College, priority 2018, dated 2023)

Experiment: physchem
Format: physicochemical
Conditions: for decomposition: 0.1 M
Method: FIGS. 24A-24D. Comparison of the stability of DPPEAQ with respect to alkyl chain cleavage to that of 2,6-DBEAQ at pH 14. ^1H NMR spectra (500 MHz, 10 mM NaCH3SO3 internal standard, δ 2.6 ppm) of (A) DPPEAQ at pH 14; (B) DPPEAQ at pH 14, treated for 5.5 days at 95° C. and 0.1 M concentration; (C) 2,6-DBEAQ at pH 14; (D) 2,6-DBEAQ at pH 14, treated for 5.5 days at 95° C. and 0.1 M concentration. […] The relative integrals and splitting of the peaks in the spectra of DPPEAQ after treatment are consistent with the products of (3-hydroxypropyl)phosphonate cleavage. Samples of DPPEAQ at 0.1 M concentration and pH 14 in both the oxidized and reduced form were stored in FEP bottles and heated in an oven at 65° C. for 2 weeks. The extent of decomposition was determined by ^1H NMR, with peak integrals measured relative to an internal standard of NaCH3SO3 prepared at 10 mM concentration in D2O.
By performing elevated temperature chemical stability studies, we have identified that the cleavage of γ-hydroxybutyrate is involved in the decomposition of the oxidized form of 2,6-DBEAQ (FIGS. 10A-10C and FIGS. 11A-11D), and we have characterized the time course of γ-hydroxybutyrate cleavage at pH 12 and pH 14 and at 0.1 M and 0.5 M concentration (FIG. 12 and FIGS. 13A-13C). […]; these observations are consistent with long redox flow battery lifetime at typical operating cell conditions.
We designed an analogue of 2,6-DBEAQ but with phosphonate-terminated functional groups, DPPEAQ, appearing to deliver both of these desired outcomes.
The differing relative stabilities of DPPEAQ and 2,6-DBEAQ at pH 12 (at 95° C. and 0.1 M concentration), in contrast to the similar extent of their observed decomposition at pH 14, may be due to a competition between multiple decomposition mechanisms that vary in a pH-dependent manner. The concentration of hydroxide ions at pH 14 is tenfold higher than the concentration of either molecule at 0.1 M, as opposed to tenfold lower at pH 12. In particular, we propose a hydroxide-mediated nucleophilic substitution reaction (SNAr or SN2) that dominates the decomposition of both molecules at pH 14. However, at a lower pH of 12, an intramolecular reaction with carboxylate acting as the nucleophile dominates in the decomposition of 2,6-DBEAQ, while no analogous intramolecular reaction of DPPEAQ at pH 12 can take place due to much weaker nucleophilicity of bulked phosphonate compared with carboxylate. The difference in the dominant mechanisms of 2,6-DBEAQ decomposition at pH 12 and 14 that we are proposing is also consistent with the observation that the initial rate of degradation is not 100-fold slower at pH 12 relative to pH 14. […] In addition, the operability at lower pH serves to decrease the corrosion of battery systems and enable the use of less expensive materials.

Structure (SMILES): O=C([O-])CCCOc1ccc2c(c1)C(=O)c1ccc(OCCCC(=O)[O-])cc1C2=O.[K+].[K+] [2,6-DBEAQ, 4,4′-((9,10-anthraquinone-2,6-diyl)dioxy)dibutyric acid]
- half-life (buffer, room temperature, pH 14, 0.1 M, oxidized form, from elevated temperature studies): ~1830 days
- decomposition (pH 12, 6 days at 95° C.): 15%
- decomposition (pH 14, 5.5 days at 95° C.): 45%
- stability of the reduced form (temperatures up to 95° C.): quite stable
